Results from paper PMC8287724, “Reducing Auditory Nerve Excitability by Acute Antagonism of Ca^2+-Permeable AMPA Receptors” (Frontiers in Synaptic Neuroscience, 2021).
“And” between values parts separate entries of the source, which are not always exact repeats. Equal values may be shown once. Read-outs that look alike come from different tables or passages of the source.

Columns and labels:
[1] = In vitro microsomal stability assay, human; type: in vitro ADME; conditions: pH 7.4; human liver microsomes, 1 μM compound, 37°C; read-out: Half-life (min) Mean (N = 2)
Experimental: The stability of IEM-1460 in the presence of guinea pig liver microsomes (BioIVT, PN: X008070) or IEM-1925 in the presence of human (BioIVT, PN: M00101), mouse, or guinea pig liver microsomes was evaluated (Paraza Pharma, Inc., Montreal, Quebec, Canada). Both IEM-1925 and IEM-1460 were incubated with microsomes at 37°C for a total of 45 min. Working solutions were prepared in 100 mM potassium phosphate buffer and the final reaction was performed at pH 7.4 in 100 mM potassium phosphate buffer containing 0.5 mg/mL liver microsomal protein. Phase I metabolism was assessed by adding NADPH to a final concentration of 1 mM and collecting samples at time points 0, 5, 15, 30, and 45 min. All collected samples were quenched 1:1 with ice-cold stop solution (1 μM labetalol and 1 μM glyburide in acetonitrile) and centrifuged to remove precipitated protein. […] Samples were analyzed by LC-MS/MS using a Thermo Vanquish UPLC and a Thermo Quantis triple quadrupole mass spectrometer. […] Reference compounds were also assessed to ensure accuracy and precision of experimental protocol: imipramine and verapamil for human liver microsomes, diphenhydramine and verapamil for mouse liver microsomes, and warfarin and verapamil for guinea pig liver microsomes. […] Half-life was determined from a plot of the natural logarithm of the peak area ratio (remaining compound peak area/internal standard peak area) against time. […]

[2] = Drug levels in blood, perilymph and CSF after IP injection (LC/MS); type: in vivo, guinea pig; conditions: for Kp / half-life: NIH-strain, pigmented, guinea pig; for Kp: ip; for half-life: blood, in vivo, IP injection: IEM-1460 13.5 mg/kg, IEM-1925 8 mg/kg, estimated from PK data, read-out: elimination half-life in blood
Experimental: After at least 30 min of baseline data, 1 mL of Lactated Ringer's was injected into the peritoneal space of the guinea pig as a vehicle control. Then, 13.5 mg/kg IEM-1460 or 8 mg/kg IEM-1925 in Lactated Ringer's was injected into the peritoneal space of the guinea pig. The entire experiment took ~3 h to complete: 1 h for anesthetic induction and surgery, 30 min for sound calibration and CAP threshold measurements, and 2 h for drug delivery, DPOAE and CAP measurements. After collection of perilymph and CSF, the animal was euthanized via saturated KCl delivered directly into the jugular vein.
General surgical scissors were used to clip the toenail at a 45° angle to collect blood with a premarked glass capillary tube during the baseline period and after drug injection. The exact volume was determined by measurement of the fluid meniscus in a calibrated capillary tube. […] Complete details used to perform apical fluid sampling are presented elsewhere and are only briefly provided here (Mynatt et al., [2006]). Similar to the apical cochlear fenestration used to deliver drugs (described above), the mucosa on the cochlea was cleared from two apical turns using a small cotton swab, and the bone at the apex was allowed to dry. A droplet of thin cyanoacrylate adhesive was applied and cup formed over the apex with silicone adhesive. A small perforation (50–100 μm diameter) was then made in the bone over scala vestibuli at the apex using a 30° pick. Upon perforation, fluid immediately started emerging, driven by intralabyrinthine pressure from CSF, and formed a bead within the hydrophobic silicone cup. A calibrated 5 μL capillary micropipette (VWR #5342-706, S. Plainfield, NJ) was held by hand in contact with the fluid at the apex, so that fluid was drawn into the capillary in ~30 s. The exact volume was determined by measurement of the fluid meniscus. Perilymph from the opposite ear was sampled prior to euthanizing the animal, then ~2 μL of CSF was aspirated by inserting a micropipette through the dura mater into the cisterna magna. After the fluid meniscus from the capillary tube was measured, the capillary tube was then flushed with 25.0 μL 50:50 methanol-water solvent to ensure that all the sample was collected.
The concentration of IEM-1460 in perilymph, blood, and CSF was analyzed using LC-MS (Confluence Life Sciences, St. Louis, MO). LC-MS-grade acetonitrile, LC-grade methanol, formic acid, sodium hydroxide 0.1 M, perfluoroheptanoic acid, formic acid, and hydrochloric acid were purchased from Sigma-Aldrich (USA). Deionized water (R > 18 MΩ/cm, TOC <10 ppb) was used throughout all these experiments. IEM-1460 and IEM-1925 were purchased from Tocris Bioscience (Bristol, UK). A 10 mM stock solution was made for both IEM-1460 and IEM-1925 in 50% aqueous methanol. For calibration of the specific compound concentration in the tested matrix (i.e., plasma or CSF/perilymph), a set of standard solutions were prepared by diluting concentrated stock solutions with 50% aqueous methanol into guinea pig plasma matrix or artificial perilymph (in mM: 127.5 NaCl, 3.5 KCl, 25 NaHCO3, 1.3 CaCl2, 1.2 MgCl2, 0.75 NaH2PO4, and 11 glucose) to have a set of standards from 1 to 300 ng/mL. […] Calibration standard samples using verapamil were prepared for each batch of samples ranging from 1 to 300 ng/mL and injected at both the beginning and end of the sample sequence. The methodology for LC-MS for blood has previously been described (Da Silva et al., [2016]; Guiraud et al., [2017]). Separation and analysis were performed on a LC instrument (Exion LC AD, AB SCIEX, USA) coupled to a Sciex QTRAP5500 with TurboV Ion Source (SCIEX, Concord, ON, Canada) equipped with a heated electrospray ionization (H-ESI) source. Chromatographic separation was obtained using a gradient elution on a reversed-phase Kinetex F5 (Phenomenex, Aschaffenburg, Germany) column (2.1 × 50 mm), packed with 1.7 μm diameter particles. […]

[3] = test system: non-pyramidal cells (expressing mainly GluA2-lacking CP-AMPARs); set-up: method as in Tikhonov et al., 2000; conditions: 2000, cited from earlier work; for IC50: rat hippocampus ref Tikhonov et al.; for apparent selectivity for CP- over CI-AMPARs: ref Tikhonov et al.

With `C[N+](C)(C)CCCCCNCC12CC3CC(CC(C3)C1)C2` [IEM-1460] the half-life at 1 μM [1] was over 300 min, the “time to plateau of blood plasma concentration” value ([2]; IP 13.5 mg/kg) was at most 30 min and the “concentration in blood plasma at plateau” value ([2]; IP 13.5 mg/kg, average, N = 3) was ~ 7 μg/mL. The concentration in blood ([2]; IP 13.5 mg/kg, converted from 7 μg/mL) was 23.8 µM, the “perilymph level as % of blood level” value ([2]; IP 13.5 mg/kg, ~2 h after injection, N = 3, 13.5 mg/kg) was 17–45% and the concentration in perilymph ([2]; IP 13.5 mg/kg, ~2 h after injection, from blood level and perilymph/blood ratio, 13.5 mg/kg) was 4–11 μM and ~ 7 μM. For the same compound, the Kp ([2]; CSF relative to blood, 13.5 mg/kg, IP 13.5 mg/kg, ~2 h after injection, N = 3, read-out: CSF level as % of blood level) was 0.08 to 0.23, the half-life [2] was 1.97 h and the Kp ([2]; perilymph relative to blood, 13.5 mg/kg, IP 13.5 mg/kg, ~2 h after injection, N = 3, read-out: perilymph level as % of blood level) was about 0.3. The IC50 [3] was about 3 µM and the “apparent selectivity for CP- over CI-AMPARs” value [3] was ~ 300 fold.

In the case of `NCCCCCNC1(c2ccccc2)CCCCC1` [IEM-1925], the half-life at 1 μM [1] is reported as over 300 min, the “LC/MS detection in perilymph or CSF” value ([2]; IP 8 mg/kg) is reported as “did not detect significant” and the “levels detected in blood” value ([2]; IP 8 mg/kg) is reported as “Very low levels”. The half-life [2] was 1.13 h, the IC50 [3] was about 1 µM and the “apparent selectivity for CP- over CI-AMPARs” value [3] was ~ 300 fold.
